According to ChEMBL document CHEMBL1201862, “PubChem BioAssay data set” (2004):
Calls of active or inactive are those of the source.

Key:
[1] = target: Glyceraldehyde-3-phosphate dehydrogenase (Homo sapiens, UniProt P04406)
[2] = target: T1, Alkaline phosphatase, tissue-nonspecific isozyme (Homo sapiens, UniProt P05186); assay: potency against alkaline phosphatase TNAP – biochemical, luminescent, dose response, SAR follow-up (AID 1056)
T1 sequence (P05186 whole entry): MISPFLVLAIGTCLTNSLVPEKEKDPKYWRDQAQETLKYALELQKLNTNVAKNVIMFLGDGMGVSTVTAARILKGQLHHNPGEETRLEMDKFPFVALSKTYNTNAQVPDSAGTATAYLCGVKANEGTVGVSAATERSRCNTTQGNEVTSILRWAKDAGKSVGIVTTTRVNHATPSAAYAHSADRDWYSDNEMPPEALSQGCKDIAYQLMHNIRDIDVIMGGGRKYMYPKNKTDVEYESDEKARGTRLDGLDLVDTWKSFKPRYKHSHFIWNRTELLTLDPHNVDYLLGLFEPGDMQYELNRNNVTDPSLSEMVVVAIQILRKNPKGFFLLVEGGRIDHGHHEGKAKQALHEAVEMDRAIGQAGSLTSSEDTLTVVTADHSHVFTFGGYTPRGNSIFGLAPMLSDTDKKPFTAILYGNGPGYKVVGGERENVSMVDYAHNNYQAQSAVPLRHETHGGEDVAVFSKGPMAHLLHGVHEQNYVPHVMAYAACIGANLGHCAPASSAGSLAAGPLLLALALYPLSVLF

Ion channel NompC = Ion channel NompC (Danio rerio, UniProt Q7T1G6); assay: Dose response cell-based high-throughput screening assay for agonists of the transient receptor potential channel N1 (TRPN1). [Related pubchem assays (depositor defined):AID1424, AID1448]; format: functional
Mucolipin-3 = Mucolipin-3 (Homo sapiens, UniProt Q8TDD5); assay: Fluorescence counterscreen assay for […] agonists: dose response cell-based high-throughput screening assay to identify agonists of the transient receptor potential channel ML3 (TRPML3). [Related pubchem assays: 1424, 1448 ]; format: functional
[3] = target: DNA damage-inducible transcript 3 protein (Mus musculus, UniProt P35639); format: functional, Cricetulus griseus
X-box-binding protein 1 = X-box-binding protein 1 (Homo sapiens, UniProt P17861); format: functional, Cricetulus griseus;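 also: confirmatory dose-response counter-screen serving a CHOP assay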
[4] = target: Alkaline phosphatase, placental type (Homo sapiens, UniProt P05187); assay: human placental alkaline phosphatase inhibition – biochemical, luminescence, confirmation (AID 1512); format: functional
Alkaline phosphatase, placental type, sequence (P05187 whole entry): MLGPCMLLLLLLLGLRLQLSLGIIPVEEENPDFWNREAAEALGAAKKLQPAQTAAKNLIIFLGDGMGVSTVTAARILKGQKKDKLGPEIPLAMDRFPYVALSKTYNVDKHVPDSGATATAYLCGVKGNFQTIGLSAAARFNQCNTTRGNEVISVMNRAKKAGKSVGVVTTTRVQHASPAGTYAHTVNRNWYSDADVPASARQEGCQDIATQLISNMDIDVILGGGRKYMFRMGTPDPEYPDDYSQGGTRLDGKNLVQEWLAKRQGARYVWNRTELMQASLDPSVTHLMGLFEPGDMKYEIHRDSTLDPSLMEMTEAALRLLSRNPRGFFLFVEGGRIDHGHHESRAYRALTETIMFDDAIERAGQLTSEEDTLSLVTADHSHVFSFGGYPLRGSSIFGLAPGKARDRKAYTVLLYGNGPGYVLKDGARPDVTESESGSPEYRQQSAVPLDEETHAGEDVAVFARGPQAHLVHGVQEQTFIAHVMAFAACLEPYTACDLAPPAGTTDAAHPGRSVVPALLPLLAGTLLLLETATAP

Glyceraldehyde-3-phosphate dehydrogenase, sequence (P04406 whole entry): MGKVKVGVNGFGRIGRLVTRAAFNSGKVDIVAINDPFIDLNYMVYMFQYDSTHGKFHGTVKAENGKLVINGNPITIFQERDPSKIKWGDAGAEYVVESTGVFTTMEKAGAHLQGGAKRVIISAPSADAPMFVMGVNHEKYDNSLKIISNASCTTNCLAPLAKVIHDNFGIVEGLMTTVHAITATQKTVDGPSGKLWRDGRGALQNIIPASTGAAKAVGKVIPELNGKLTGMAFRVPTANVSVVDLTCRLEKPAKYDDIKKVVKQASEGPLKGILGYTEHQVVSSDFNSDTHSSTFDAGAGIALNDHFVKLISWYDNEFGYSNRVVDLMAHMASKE
DNA damage-inducible transcript 3 protein, sequence (P35639 whole entry): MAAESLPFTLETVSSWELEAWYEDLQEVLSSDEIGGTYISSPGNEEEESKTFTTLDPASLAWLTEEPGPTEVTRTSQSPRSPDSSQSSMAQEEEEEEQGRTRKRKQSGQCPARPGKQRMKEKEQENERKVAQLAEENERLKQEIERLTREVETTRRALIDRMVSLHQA
Mucolipin-3, sequence (Q8TDD5 whole entry): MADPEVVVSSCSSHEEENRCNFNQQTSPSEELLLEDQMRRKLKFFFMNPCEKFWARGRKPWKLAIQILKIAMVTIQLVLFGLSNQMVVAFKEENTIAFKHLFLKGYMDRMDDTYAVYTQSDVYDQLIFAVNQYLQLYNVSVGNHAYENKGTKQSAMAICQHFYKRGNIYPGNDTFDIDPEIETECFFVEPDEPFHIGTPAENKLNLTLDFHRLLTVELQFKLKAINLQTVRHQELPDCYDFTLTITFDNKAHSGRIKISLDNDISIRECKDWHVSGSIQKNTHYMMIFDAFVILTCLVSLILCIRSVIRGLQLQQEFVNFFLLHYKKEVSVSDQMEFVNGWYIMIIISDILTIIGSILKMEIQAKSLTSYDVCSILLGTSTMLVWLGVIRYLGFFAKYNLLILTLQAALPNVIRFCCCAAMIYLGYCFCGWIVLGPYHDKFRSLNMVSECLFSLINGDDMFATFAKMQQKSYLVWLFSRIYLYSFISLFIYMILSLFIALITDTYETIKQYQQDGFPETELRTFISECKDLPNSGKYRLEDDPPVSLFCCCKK
Ion channel NompC, sequence (Q7T1G6 whole entry): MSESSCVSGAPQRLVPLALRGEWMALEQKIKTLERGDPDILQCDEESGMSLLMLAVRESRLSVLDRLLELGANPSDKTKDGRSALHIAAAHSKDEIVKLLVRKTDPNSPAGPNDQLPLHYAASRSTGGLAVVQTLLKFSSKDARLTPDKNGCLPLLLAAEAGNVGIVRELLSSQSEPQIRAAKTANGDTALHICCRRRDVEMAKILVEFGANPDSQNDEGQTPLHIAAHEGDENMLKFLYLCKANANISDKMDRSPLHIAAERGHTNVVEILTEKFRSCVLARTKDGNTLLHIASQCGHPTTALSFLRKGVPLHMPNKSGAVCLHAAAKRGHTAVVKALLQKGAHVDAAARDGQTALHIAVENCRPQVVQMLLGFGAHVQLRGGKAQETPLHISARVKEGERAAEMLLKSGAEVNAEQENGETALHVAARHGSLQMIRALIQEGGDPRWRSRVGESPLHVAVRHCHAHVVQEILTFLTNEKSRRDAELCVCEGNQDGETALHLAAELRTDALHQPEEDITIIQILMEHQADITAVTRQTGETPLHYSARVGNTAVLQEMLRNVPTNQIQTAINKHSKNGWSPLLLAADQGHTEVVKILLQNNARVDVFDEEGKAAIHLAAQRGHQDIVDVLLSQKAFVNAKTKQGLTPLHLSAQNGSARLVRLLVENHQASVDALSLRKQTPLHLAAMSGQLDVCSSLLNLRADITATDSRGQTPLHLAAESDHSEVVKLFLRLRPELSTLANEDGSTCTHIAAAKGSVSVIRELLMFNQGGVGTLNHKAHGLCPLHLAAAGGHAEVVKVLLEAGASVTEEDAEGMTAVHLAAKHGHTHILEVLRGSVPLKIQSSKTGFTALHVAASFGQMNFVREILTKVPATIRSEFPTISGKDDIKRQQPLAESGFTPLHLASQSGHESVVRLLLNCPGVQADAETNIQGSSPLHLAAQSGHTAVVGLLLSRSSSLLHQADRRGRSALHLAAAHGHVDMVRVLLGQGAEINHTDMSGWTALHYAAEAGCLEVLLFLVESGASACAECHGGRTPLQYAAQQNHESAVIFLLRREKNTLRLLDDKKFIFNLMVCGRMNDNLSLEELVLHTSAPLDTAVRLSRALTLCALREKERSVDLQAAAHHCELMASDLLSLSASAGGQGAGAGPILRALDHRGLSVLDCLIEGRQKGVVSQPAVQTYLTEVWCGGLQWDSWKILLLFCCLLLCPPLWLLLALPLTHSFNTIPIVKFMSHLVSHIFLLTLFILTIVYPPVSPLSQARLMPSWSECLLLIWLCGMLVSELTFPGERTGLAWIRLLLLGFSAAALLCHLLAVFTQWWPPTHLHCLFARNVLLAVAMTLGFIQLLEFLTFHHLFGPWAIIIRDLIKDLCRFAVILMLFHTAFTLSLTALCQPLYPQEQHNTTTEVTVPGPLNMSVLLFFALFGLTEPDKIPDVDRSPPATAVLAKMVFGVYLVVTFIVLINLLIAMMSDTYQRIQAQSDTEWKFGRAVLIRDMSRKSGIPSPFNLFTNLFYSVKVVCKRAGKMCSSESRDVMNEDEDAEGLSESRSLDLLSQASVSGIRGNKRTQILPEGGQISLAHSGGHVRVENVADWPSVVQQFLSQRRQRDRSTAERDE
X-box-binding protein 1, sequence (P17861 whole entry): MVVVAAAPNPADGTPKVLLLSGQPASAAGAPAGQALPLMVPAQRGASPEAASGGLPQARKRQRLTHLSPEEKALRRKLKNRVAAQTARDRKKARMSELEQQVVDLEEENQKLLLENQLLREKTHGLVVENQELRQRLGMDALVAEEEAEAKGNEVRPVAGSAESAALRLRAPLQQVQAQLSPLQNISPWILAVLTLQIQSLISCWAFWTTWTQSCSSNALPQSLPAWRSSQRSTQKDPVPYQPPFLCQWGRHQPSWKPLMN

COc1cccc(S(=O)(=O)Nc2cccnc2)c1
IC50 [1]: > 100 µM (not active) | IC50 [2]: > 100 µM (inactive)

COc1ccccc1N(CC(=O)NC(C)(C)C)S(=O)(=O)c1cccs1
EC50 (Ion channel NompC): > 29.9 µM (inactive) | EC50 (Mucolipin-3): > 29.9 µM (not active)

COc1ccc(Cc2nc3ccccc3n2CC(=O)N/N=C/c2ccc(C)cc2O)cc1OC
Absolute IC50 (CHOP) [3]: 10 µM

O=[N+]([O-])c1ccc(O)c(/C=N/Nc2ccccc2Cl)c1
Absolute IC50 (XBP1) (X-box-binding protein 1): 10 µM | Absolute IC50 (CHOP) [3]: 10 µM

COc1ccc2[nH]c(SCC(=O)c3ccc(O)c(O)c3)nc2c1
IC50 [1]: > 100 µM (not active) | IC50 [4]: 6.17 µM (active) | IC50 [2]: 19.3 µM (active)
